Assay results from US7081473B2, “Agent for preventing/ameliorating obesity comprising methylidene hydrizide compound as active ingredient” (Sanwa Kagaku Kenkyusho Co., Ltd., priority 2002, dated 2006).

What was measured:
GIP = conditions: disclosed in WO 01/87341; read-out: IC50 (inhibiting the functions of GIP); cited from earlier work
human GIP receptor = target: T1, human GIP receptor (Homo sapiens, UniProt P48546); assay: Inhibition of cAMP production by GIP stimulation in human GIP receptor-expressing CHO cells; format: cell-based; conditions: for IC50: 100 pM GIP, 37° C., 30 minutes, human GIP receptor-expressing CHO cells, read-out: IC50 (concentration of the compound at which the production of cAMP by GIP is inhibited by 50%)
T1 construct: expressed in transfected cells; host or cells: CHO cells
T1 sequence (P48546 22-466): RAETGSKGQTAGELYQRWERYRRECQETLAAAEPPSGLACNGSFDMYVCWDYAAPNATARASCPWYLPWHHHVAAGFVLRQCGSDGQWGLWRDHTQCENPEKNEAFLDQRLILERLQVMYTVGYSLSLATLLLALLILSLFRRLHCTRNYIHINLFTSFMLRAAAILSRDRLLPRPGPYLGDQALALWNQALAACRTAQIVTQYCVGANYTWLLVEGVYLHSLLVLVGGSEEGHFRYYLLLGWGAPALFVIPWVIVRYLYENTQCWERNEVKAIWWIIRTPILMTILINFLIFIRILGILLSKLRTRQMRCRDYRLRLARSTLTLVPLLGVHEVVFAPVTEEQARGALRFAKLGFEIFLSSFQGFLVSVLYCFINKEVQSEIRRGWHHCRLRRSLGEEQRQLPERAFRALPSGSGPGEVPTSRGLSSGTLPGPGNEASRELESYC
Source text: The system for evaluation of GIP function inhibitors (GIP receptor antagonists and the like) made use of the following method wherein their inhibitory activity on production of cAMP as GIP intracellular transmitter was used as an indicator.
According to a method of Kubota et al. (Diabetes 45: 1701–1705, 1996), human GIP receptor-expressing cells prepared by introducing GIP cDNA into CHO cells were used. First, cAMP was produced by stimulation with 100 pM GIP in the presence/absence of the test chemical at 37° C. for 30 minutes in phosphate-buffered saline, pH 7.4, containing 1 mM isobutylmethylxanthine, 5.6 mM glucose and 0.5% bovine serum albumin. Then, using a cAMP assay system (PE Biosystems), the cells were lyzed with an attached lysis buffer, the amount of cAMP accumulated in the cells was measured, and the inhibitory activity of the test sample on the functions of GIP was determined. To verify the action of the test sample completely irrelevant to the action on GIP receptor, the inhibitory effect of the test sample on formation of cAMP upon stimulating, with 5 μM forskolin, CHO cells into which the GIP receptor gene had not been introduced (cells not expressing the GIP receptor) was also confirmed. The inhibitory activity was expressed in terms of IC50 (concentration of the compound at which the production of cAMP by GIP is inhibited by 50%). A compound not showing any inhibitory activity on formation of cAMP in the cells not expressing the GIP receptor, but inhibiting the formation of cAMP by stimulation with GIP, in the cells expressing the GIP receptor, was regarded as an active compound.

Row | Structure (SMILES) | IC50 (human GIP receptor) [nM] | IC50 (GIP) [nM] | inhibition of cAMP formation upon stimulation with GIP (functions of GIP) (human GIP receptor; cells expressing the GIP receptor, result in words)
1 | Cc1cc(O)n2nc(-c3ccccc3)c(Br)c2n1 [3-bromo-5-methyl-2-phenylpyrazolo[1,5-a]pyrimidin-7-ol] |  | ~40000 | 
2 | O=C(N/N=C/c1ccccc1Br)c1ccc(O)cc1 [Compound 1] | 19000 |  | inhibited the functions of GIP though at low levels
3 | Cc1cc(C)c(C)c(Cn2ccc3c(/C=N/NC(=O)c4ccc(O)c(C#N)c4)cccc32)c1C [Compound 2, 3-Cyano-4-hydroxybenzoic acid [1-(2,3,5,6-tetramethylbenzyl)indol-4-yl]methylidene hydrazide] | 6.3 |  | 

More lines, in order of falling IC50 (human GIP receptor), values ahead:

Row | IC50 (human GIP receptor) [nM] | Structure (SMILES) | IC50 (GIP) [nM] | inhibition of cAMP formation upon stimulation with GIP (functions of GIP) (human GIP receptor; cells expressing the GIP receptor, result in words)
4 | 560 | COc1ccc(/C=N/NC(=O)c2ccc(O)c(Cl)c2)c2ccccc12 [Compound 3, 3-Chloro-4-hydroxybenzoic acid (4-methoxynaphthalen-1-yl)methylidene hydrazide] |  | 
5 | 440 | O=C(N/N=C/c1ccc2c(ccn2Cc2ccc(Cl)s2)c1)c1ccc(O)c(Cl)c1 [Compound 4, 3-Chloro-4-hydroxybenzoic acid [1-(5-chlorothiophen-2-ylmethyl)-1H-indol-5-yl]methylidene hydrazide] |  | 
